Data published in patent US20240279207A1, “SUBSTITUTED ACYL SULFONAMIDES FOR TREATING CANCER” (The Broad Institute, Inc., priority 2020, published 2024).
Where two headings read alike, the source gives them in different places.

Tests used:
[1] = test system: ESR1 transcription in MVLN cells; assay: MVLN reporter assay: repression of ESR1 transcription (luciferase signal); assay type: cell-based; conditions: luciferase signal after 24 h, read-out: MVLN reporter assay, IC50 [M] (arithmetic mean)
Method in brief: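 To control for cell loss, Alamar Blue (2 h, 530/590 nm) precedes the 24 h luciferase measurement. The reporter is an ERE from the Xenopus vitellogenin A2 gene driving luciferase, stably transfected into ER-expressing MVLN cells; duplicate samples.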

[2] = target: T1, Recombinant human His-tagged Kat6a protein (amino acids 194-810) (Homo sapiens, UniProt Q92794); assay: Kat6a activity assay (TR-FRET, acetylation of Histone-H4-derived peptide); assay type: biochemical; conditions: 60 mins at 22° C., 220 nM H4 peptide, 600 nM Acetyl Coenzyme A, read-out: KAT6A - DPF/HAT domain IC50 [mol/l] (arithmetic mean)
T1 construct: Kat6a protein (amino acids 194-810); His
T1 sequence (Q92794 194-810): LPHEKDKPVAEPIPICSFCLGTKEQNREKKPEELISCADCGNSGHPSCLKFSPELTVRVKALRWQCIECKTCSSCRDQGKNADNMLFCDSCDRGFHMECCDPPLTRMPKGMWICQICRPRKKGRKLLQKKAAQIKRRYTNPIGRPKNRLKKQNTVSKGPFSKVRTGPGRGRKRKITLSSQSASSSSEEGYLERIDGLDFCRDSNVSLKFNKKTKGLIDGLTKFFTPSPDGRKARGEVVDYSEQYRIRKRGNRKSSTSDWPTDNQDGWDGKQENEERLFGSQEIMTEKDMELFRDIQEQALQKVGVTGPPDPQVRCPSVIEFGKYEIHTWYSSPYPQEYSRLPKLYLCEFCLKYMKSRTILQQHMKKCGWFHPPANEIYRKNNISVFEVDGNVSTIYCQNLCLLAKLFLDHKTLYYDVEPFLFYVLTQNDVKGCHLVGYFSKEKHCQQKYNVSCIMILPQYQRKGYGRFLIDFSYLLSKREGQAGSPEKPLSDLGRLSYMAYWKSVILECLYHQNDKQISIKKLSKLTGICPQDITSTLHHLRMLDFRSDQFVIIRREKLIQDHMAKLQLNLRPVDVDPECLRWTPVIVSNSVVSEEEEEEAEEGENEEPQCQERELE

[3] = test system: ZR-75-1 cells; assay: ZR-75-1 proliferation assay; assay type: cell-based; conditions: Alamar Blue, read-out: ZR75-1 proliferation assay, EC50 [M] (arithmetic mean)
Source text: (§1) For compound characterization cell survival assays were routinely run in two cell lines. ZR-75-1 is a breast carcinoma cell line containing a focal KAT6A amplification and high KAT6A protein expression. Proliferation of this cell line is inhibited upon treatment with KAT6A inhibitors. As a negative control cell line MDA-MB-436 were used. These cells carry a […] deletion of the KAT6A gene, have a low KAT6A protein expression and are not growth inhibited upon treatment with KAT6A inhibitors.
(§2) For measurements cell lines were plated at the below indicated concentration per […] in 96-well plates in a humidified incubator at 37° C. and 5% CO2.
ZR-75-1 (ATCC, CRL-1500; breast carcinoma); 3000 cells per well; culture medium: RPMI 1640 (Biochrom #FG 1215) medium containing 2.5% FBS (Biochrom #S0615).
(§3) Each sample was prepared as triplicate and rim wells were excluded. Plates were incubated at 37° C. and 5% CO2 for 144 h. Cell viability was measured by adding 10 μL of Alamar Blue Reagent (Invitrogen #DAL 1100) and plates were incubated for 2 h at 37° C. and 5% CO2. Fluorescence was measured at 590 nm wavelength with a Tecan Spark or Victor X3 MTP-Reader (PerkinElmer).

[4] = test system: MDA-MB-436 cells; assay: MDA-MB-436 proliferation assay (negative control cell line); assay type: cell-based; conditions: 144 h, Alamar Blue, read-out: MDA-MB-436 proliferation assay, EC50 [M] (arithmetic mean)
Source text: as §1, §2
MDA-MB-436 (CLS, 300278; breast adenocarcinoma); 3000 cells per well; culture medium: DMEM/Ham's F12 (Biochrom #FG 4815) medium containing 2.5% FBS (Biochrom #S0615).
as §3

[5] = test system: LCLC97TM1; assay: LCLC97TM1 proliferation assay; assay type: cell-based; conditions: read-out: LCLC97TM1 proliferation assay, EC50 [M] (arithmetic mean)
[6] = Homo sapiens, LCLC-97TM1, LCLC97TM1

Row | SMILES | IC50 ([1]; Homo sapiens, MVLN, 24 h) [M] | IC50 [2] [nM] | EC50 ([4]; Homo sapiens) [M] | IC50 [1] [M] | EC50 [4] [M] | EC50 ([3]; Homo sapiens, ZR-75-1, 144 h) [M] | EC50 [5, 6] [M] | EC50 ([3]; 144 h) [M] | EC50 ([5]; LCLC97TM1) [M]
1 | O=C(NS(=O)(=O)c1ccccc1-c1ccccc1)c1cc2c(F)cc(N3CCC3)cc2o1 [Example 20, Sodium {[6-(azetidin-1-yl)-4-fluoro-1-benzofuran-2-yl]carbonyl}([biphenyl]-2-ylsulfonyl)azanide] |  | 34.2 |  | 3.03e-07 | > 2e-05 | 2.87e-07 | 1.42e-06 |  | 
2 | CCc1ccc2cccc(S(=O)(=O)NC(=O)c3cc4c(F)cc(N5CCC5)cc4o3)c2n1 [Example 171, 6-(Azetidin-1-yl)-N-(2-ethylquinoline-8-sulfonyl)-4-fluoro-1-benzofuran-2-carboxamide] | 6.68e-08 | 15.7 | > 2e-05 |  |  | 3.98e-07 | 4.4e-07 |  | 
3 | O=C(NS(=O)(=O)c1c(OCc2ccccc2)cccc1OC1CCC1)c1cc2c(F)cc(N3CCC3)cc2o1 [Example 5, 6-(Azetidin-1-yl)-N-[2-(benzyloxy)-6-(cyclobutyloxy)benzene-1-sulfonyl]-4-fluoro-1-benzofuran-2-carboxamide] | 6.43e-08 | 1.42 | > 2e-05 |  |  | 3.57e-06 | 9.88e-06 |  | 
4 | COc1ccc(N2CCCC2c2ccccc2)cc1S(=O)(=O)NC(=O)c1cc2c(F)cc(N3CCC3)cc2o1 (racemic) [Example 201, 6-(Azetidin-1-yl)-4-fluoro-N-[2-methoxy-5-(2-phenylpyrrolidin-1-yl)benzene-1-sulfonyl]-1-benzofuran-2-carboxamide (rac)] | 6.48e-07 | 0.814 | > 2e-05 |  |  | 3.26e-06 | 2.81e-06 |  | 
5 | CC(Oc1ccccc1S(=O)(=O)NC(=O)c1cc2c(F)cc(N3CCC3)cc2o1)C(F)(F)F (single isomer, unassigned) [Example 14] | 6.93e-08 | 28.1 | > 2e-05 |  |  |  |  | 9.93e-08 | 1.39e-06
6 | CCOc1ccccc1S(=O)(=O)NC(=O)c1cc2ccc(N3CC(F)(F)C3)cc2o1 [Example 118, 6-(3,3-Difluoroazetidin-1-yl)-N-(2-ethoxybenzene-1-sulfonyl)-1-benzofuran-2-carboxamide] | 1.2e-06 | 1990 | > 2e-05 |  |  | 2.46e-06 | 2.72e-06 |  | 
7 | CC1(C)CCc2cccc(S(=O)(=O)NC(=O)c3cc4c(F)cc(N5CCC5)cc4o3)c2O1 [Example 80, 6-(Azetidin-1-yl)-N-(2,2-dimethyl-3,4-dihydro-2H-1-benzopyran-8-sulfonyl)-4-fluoro-1-benzofuran-2-carboxamide] | 7.27e-08 | 12.1 | > 2e-05 |  |  | 1.49e-07 | 3.17e-07 |  | 
8 | CCOc1ccccc1S(=O)(=O)NC(=O)c1cc2ccc(N3CC4(COC4)C3)cc2o1 [Example 125, N-(2-ethoxybenzene-1-sulfonyl)-6-(2-oxa-6-azaspiro[3.3]heptan-6-yl)-1-benzofuran-2-carboxamide] | > 2e-05 | > 20000 | > 2e-05 |  |  | > 2e-05 | > 2e-05 |  | 
9 | CC(Oc1ccccc1S(=O)(=O)NC(=O)c1cc2c(F)cc(N3CCC3)cc2o1)C(F)(F)F (single isomer, unassigned) [Example 15] |  | 47.2 |  | 7.55e-08 | > 2e-05 |  |  | 2.46e-07 | 6.28e-07
10 | O=C(NS(=O)(=O)c1ccccc1-c1ccccc1)c1cc2ccc(N3CC(F)(F)C3)cc2o1 [Example 119, N-([1,1′-biphenyl]-2-sulfonyl)-6-(3,3-difluoroazetidin-1-yl)-1-benzofuran-2-carboxamide] | 3.04e-06 | 1100 | > 2e-05 |  |  | 3.7e-06 | 1.46e-05 |  | 
11 | CCOc1cccc(OCc2ccccc2)c1S(=O)(=O)NC(=O)c1cc2c(F)cc(N3CCC3)cc2o1 [Example 7, 6-(Azetidin-1-yl)-N-[2-(benzyloxy)-6-ethoxybenzene-1-sulfonyl]-4-fluoro-1-benzofuran-2-carboxamide] | 1.23e-07 | 4.15 | > 2e-05 |  |  | 3.7e-07 | 2.92e-07 |  | 
12 | Cc1cc2c(c(S(=O)(=O)NC(=O)c3cc4c(F)cc(N5CCC5)cc4o3)c1C)OC(C)(C)C2 [Example 204, 6-(Azetidin-1-yl)-4-fluoro-N-(2,2,5,6-tetramethyl-2,3-dihydro-1-benzofuran-7-sulfonyl)-1-benzofuran-2-carboxamide] | 1.79e-07 | 7.7 | 1.6e-06 |  |  | 3.4e-07 | 8.36e-07 |  | 

Further lines, with some results ahead:

Row | IC50 ([1]; Homo sapiens, MVLN, 24 h) [M] | IC50 [2] [nM] | EC50 ([4]; Homo sapiens) [M] | IC50 [1] [M] | EC50 [4] [M] | SMILES | EC50 ([3]; Homo sapiens, ZR-75-1, 144 h) [M] | EC50 [5, 6] [M] | EC50 ([3]; 144 h) [M] | EC50 ([5]; LCLC97TM1) [M]
13 | 4.72e-08 | 8.25 | > 2e-05 |  |  | COc1ccc(C2=CCOCC2)cc1S(=O)(=O)NC(=O)c1cc2c(F)cc(N3CCC3)cc2o1 [Example 196, 6-(azetidin-1-yl)-N-[5-(3,6-dihydro-2H-pyran-4-yl)-2-methoxybenzene-1-sulfonyl]-4-fluoro-1-benzofuran-2-carboxamide] | 1.44e-07 | 8.1e-07 |  | 
14 | 3.67e-06 | 862 | > 2e-05 |  |  | CCOc1ccccc1S(=O)(=O)NC(=O)c1cc2c(F)cc(N3CCC3C(F)F)cc2o1 (racemic) [Example 163, 6-[2-(Difluoromethyl)azetidin-1-yl]-N-(2-ethoxybenzene-1-sulfonyl)-4-fluoro-1-benzofuran-2-carboxamide (rac)] | 6.67e-06 | > 2e-05 |  | 
15 | 4.69e-08 | 10.5 | > 2e-05 |  |  | CCOc1ccc(CC)cc1S(=O)(=O)NC(=O)c1cc2c(F)cc(N3CC(F)C3)cc2o1 [Example 153, N-(2-ethoxy-5-ethylbenzene-1-sulfonyl)-4-fluoro-6-(3-fluoroazetidin-1-yl)-1-benzofuran-2-carboxamide] | 4.98e-08 | 1.6e-07 |  | 
16 | 7.11e-08 | 13.4 | > 2e-05 |  |  | O=C(NS(=O)(=O)c1cccc2ccc(Cl)nc12)c1cc2c(F)cc(N3CC(F)C3)cc2o1 [Example 154, N-(2-Chloroquinoline-8-sulfonyl)-4-fluoro-6-(3-fluoroazetidin-1-yl)-1-benzofuran-2-carboxamide] | 4.95e-08 | 2.25e-07 |  | 
17 | 5.25e-08 | 8.1 | > 2e-05 |  |  | CCc1ccc(OC2CCCC2)c(S(=O)(=O)NC(=O)c2cc3c(F)cc(N4CCC4)cc3o2)c1 [Example 3, 6-(Azetidin-1-yl)-N-[2-(cyclopentyloxy)-5-ethylbenzene-1-sulfonyl]-4-fluoro-1-benzofuran-2-carboxamide] | 2.32e-07 | 1.11e-06 |  | 
18 | 7.45e-08 | 34.9 | > 2e-05 |  |  | CCOc1ccc(C)cc1S(=O)(=O)NC(=O)c1cc2c(F)cc(N3CCC3)cc2o1 [Example 6, 6-(Azetidin-1-yl)-N-(2-ethoxy-5-methylbenzene-1-sulfonyl)-4-fluoro-1-benzofuran-2-carboxamide] | 3.28e-08 | 3.12e-07 |  | 
19 | 4.82e-08 | 5.4 | > 2e-05 |  |  | CC(C)(C)c1ccc(OCC(F)(F)F)c(S(=O)(=O)NC(=O)c2cc3c(F)cc(N4CCC4)cc3o2)c1 [Example 227, 6-(Azetidin-1-yl)-N-[(5-(tert-butyl)-2-(2,2,2-trifluoroethoxy)phenyl)sulfonyl]-4-fluorobenzofuran-2-carboxamide] | 7.19e-08 | 1.22e-07 |  | 
20 | 7.14e-08 | 36.7 | > 2e-05 |  |  | CC(C)Oc1ccccc1S(=O)(=O)NC(=O)c1cc2c(F)cc(N3CC(F)C3)cc2o1 [Example 155, 4-Fluoro-6-(3-fluoroazetidin-1-yl)-N-{2-[(propan-2-yl)oxy]benzene-1-sulfonyl}-1-benzofuran-2-carboxamide] | 7.48e-08 | 4.28e-07 |  | 
21 | 1.95e-05 | 1990 | > 2e-05 |  |  | CCOc1ccccc1S(=O)(=O)NC(=O)c1cc2c(F)cc(N3CCC3C(C)(C)O)cc2o1 (racemic) [Example 162, N-(2-ethoxybenzene-1-sulfonyl)-4-fluoro-6-[2-(2-hydroxypropan-2-yl)azetidin-1-yl]-1-benzofuran-2-carboxamide (rac)] | > 2e-05 | > 2e-05 |  | 
